Measurements published in ChEMBL document CHEMBL4813931, “Boesenmaxane Diterpenoids from Boesenbergia maxwellii” (J Nat Prod, 2021).
Activity calls are given as the source filed them. The calls are words filed in the database; no cut-off is given here.

Assays:
ASK = test: Cytotoxicity against rat ASK cells measured after 48 hrs by SRB assay; assay type: functional, cell-based
KB = test: Cytotoxicity against human KB cells measured after 48 hrs by SRB assay; assay type: functional, cell-based
MCF7 = test: Cytotoxicity against human MCF7 cells measured after 48 hrs by SRB assay; assay type: functional, cell-based
Enterococcus faecalis = test: Antibacterial activity against Enterococcus faecalis assessed as bacterial growth inhibition measured after 16 to 18 hrs by Kirby-Bauer disk diffusion method; assay type: functional, organism-based; settings: time 16-18 hrs
[1] = target: Human immunodeficiency virus type 1 reverse transcriptase (Human immunodeficiency virus 1) (UniProt Q72547); test: Inhibition of HIV-1 reverse transcriptase using poly(rA)/oligo(dT)1 as template/primer incubated for 1 hr by pico-green reagent based fluorescence analysis
Escherichia coli = test: Antibacterial activity against Escherichia coli assessed as bacterial growth inhibition measured after 16 to 18 hrs by Kirby-Bauer disk diffusion method; assay type: functional, organism-based; settings: time 16-18 hrs
HEK293 = test: Cytotoxicity against human HEK293 cells measured after 48 hrs by SRB assay; assay type: cell-based; settings: hek293, 48 h
Staphylococcus aureus = test: Antibacterial activity against Staphylococcus aureus assessed as bacterial growth inhibition measured after 16 to 18 hrs by Kirby-Bauer disk diffusion method; assay type: functional, organism-based; settings: time 16-18 hrs
P388 = test: Cytotoxicity against mouse P388 cells measured after 48 hrs by SRB assay; assay type: functional, cell-based
Bacillus cereus = test: Antibacterial activity against Bacillus cereus assessed as bacterial growth inhibition measured after 16 to 18 hrs by Kirby-Bauer disk diffusion method; assay type: functional, organism-based; settings: time 16-18 hrs
Candida albicans = test: Antifungal activity against Candida albicans assessed as fungal growth inhibition measured after 16 to 18 hrs by Kirby-Bauer disk diffusion method; assay type: functional, organism-based; settings: time 16-18 hrs
T-24 = test: Cytotoxicity against human T-24 cells measured after 48 hrs by SRB assay; assay type: functional, cell-based
A549 = test: Cytotoxicity against human A549 cells measured after 48 hrs by SRB assay; assay type: functional, cell-based
HT-29 = test: Cytotoxicity against human HT-29 cells measured after 48 hrs by SRB assay; assay type: functional, cell-based
[2] = Selectivity index, ratio of IC50 for human 1A2 cells to EC50 for Human calicivirus strain MC99 infected in human 1A2 cells; assay type: toxicity, cell-based; settings: read-out: Ratio IC50/EC50
[3] = Cytotoxicity against human 1A2 cells measured after 1 hr by XTT assay; assay type: cell-based; settings: 1A2, 1 h

inhibition [1] | Compound | Activity (ASK) | Activity (KB) | Activity (MCF7) | inhibition (Enterococcus faecalis) | inhibition (Escherichia coli) | Activity (HEK293) | inhibition (Staphylococcus aureus) | Activity (P388) | inhibition (Bacillus cereus) | inhibition (Candida albicans) | Activity (T-24) | Activity (A549) | Activity (HT-29) | selectivity ratio [2] | IC50 [3] [µM]
inactive | CC1(C)C(=O)CC[C@]2(C)C3=C(C[C@H](C4=CCOC4=O)C3)C(=O)C[C@@H]12 | inactive | inactive | inactive | inactive | inactive | Non-Toxic | inactive | inactive | inactive | inactive | inactive | inactive | inactive | – | –
inactive | CC1(C)CCC[C@]2(C)C3=C(C[C@H](C4=CCOC4=O)C3)C(=O)C[C@@H]12 | inactive | inactive | inactive | inactive | inactive | Non-Toxic | inactive | inactive | inactive | inactive | inactive | inactive | inactive | > 7.2 | > 398
– | CC1(C)CCC[C@]2(C)[C@H]3C[C@@H](C4=CCOC4=O)CC3=CC[C@@H]12 | inactive | inactive | inactive | inactive | inactive | Non-Toxic | inactive | inactive | inactive | inactive | inactive | inactive | inactive | – | 381
